The source of these data is patent publication US20260077072A1, “METHODS AND COMPOSITIONS FOR IMAGING MALIGNANCIES IN THE BONE MARROW” (Washington University, priority 2022, published 2026).

The test system of series [1] is osteolytic lesion in the right iliac bone. Kind of series: 18F-FDG PET/CT of a multiple myeloma patient. The series is classed as in vivo, human. The conditions noted are these: same osteolytic lesion in right iliac bone of MM patient.
A further series concerns CD-1 mice. Kind of series: Non-GLP tolerability and toxicity study of Cu-LLP2A V2, single IV bolus. The series is classed as in vivo. The procedure:
To evaluate the tolerability and toxicity of Cu-CB-TE1A1P-PEG4-LLP2A V2 (Cu-LLP2A V2) tracer/imaging agent when administered once on Day 1 by intravenous (IV) bolus administration to male and female CD-1 mice, the following experiments were conducted. On Day 2 after administering the tracer/imaging agent, the first 10 animals/sex/group (Main Study) were sacrificed and necropsied. The remaining 5 animals/sex/group (Recovery) were weighed and observed for the remainder of the study and necropsied on Day 15.
Each treatment group (Groups 1-2) was comprised of […] CD-1 mice. Mice were administered either vehicle or 0.0604 mg/mouse Cu-LLP2A V2 (Groups 1 and 2, respectively) once on Day 1 via IV bolus injection at a dose volume of 0.125 mL/mouse. Physical examinations were recorded at the time of randomization. Clinical observations were recorded daily. Body weight measurements were taken for randomization and daily. Blood samples for the evaluation of hematology and clinical chemistry were collected on Day 2 (Main Study) and Day 15 (Recovery). Following blood sample collections, a necropsy was conducted. Protocol-specified tissues were collected and evaluated grossly, select organs were weighed, and tissues were fixed for microscopic evaluation. Tissues were subsequently processed and evaluated microscopically.

For series [2] the following is noted: reported for other copper radiopharmaceuticals; cited from earlier work.

Take `OC[C@H]1OC(O)[C@H]([18F])[C@@H](O)[C@@H]1O` (stereo partly drawn) [^18F-FDG, [^18F]fluorodeoxyglucose]: in series [1], the “SUL-peak (per PERCIST) in lesion” value worked out at 2.1 and the SUV-max in lesion worked out at 2.9.

As to “Cu-CB-TE1A1P-PEG4-LLP2A V2 [Cu-LLP2A V2]”, the Survival result with CD-1 mice (0.0604 mg/mouse IV, until scheduled sacrifice (Day 2 or Day 15)) was “All animals survived”. Further, the Tolerability result in the series with CD-1 mice (single IV injection of 0.0604 mg/mouse, male and female CD-1 mice) is given as “well tolerated”. The “NOEL (No Observable Effect Level)” value with CD-1 mice (single IV injection, male and female CD-1 mice) was 0.0604 mg/mouse.

In the case of `CN=C([S-])N/N=C(C)/C(C)=N/NC([S-])=NC.[64Cu+2]` [^64Cu-ATSM], the Effective dose in series [2] is 0.036 mSv/MBq.
